# Laboratory results published in paper PMC12112332, “Characterization of Novel and Known Activators of Cannabinoid Receptor Subtype 2 Reveals Mixed Pharmacology That Differentiates Mycophenolate Mofetil and GW-842,166X from MDA7” (International Journal of Molecular Sciences, 2025).
# Read-outs that look alike come from different tables or passages of the source.
# Key:
# Type in all cases: cell-based
# Human CB2 = Human CB2 (Homo sapiens, UniProt P34972); experiment: Activity at the human CB2 receptor (thallium flux)
# rat CB2 = target: T1, rat CB2 (Rattus norvegicus, UniProt Q9QZN9); experiment: PI hydrolysis (IP1) assay in HEK/Gqi9 cells expressing rat CB2; set-up: expressed in transfected cells; details: rCB2/Gqi9 cells
# T1 sequence (Q9QZN9 1-360): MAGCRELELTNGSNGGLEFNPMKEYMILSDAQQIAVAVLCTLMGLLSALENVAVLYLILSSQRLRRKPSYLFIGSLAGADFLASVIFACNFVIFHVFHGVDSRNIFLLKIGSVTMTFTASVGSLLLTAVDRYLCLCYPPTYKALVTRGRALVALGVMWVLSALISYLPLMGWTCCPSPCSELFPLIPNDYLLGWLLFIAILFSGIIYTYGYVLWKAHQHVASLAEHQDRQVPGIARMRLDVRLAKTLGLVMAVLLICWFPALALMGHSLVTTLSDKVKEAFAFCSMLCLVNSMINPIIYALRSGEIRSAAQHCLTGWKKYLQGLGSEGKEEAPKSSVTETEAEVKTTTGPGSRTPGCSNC
# Protocol: In a complementary assay, we used phosphoinositide (PI) hydrolysis in the presence of the chimeric G protein, Gqi9, to assess activity.
# One day prior to experimentation, selected HEK/Gqi9 monoclonal cells stably expressing rat CB2 were plated onto poly-D-lysine coated clear-bottom 384-well plates (15,000 cells per well) in DMEM supplemented with 10% FBS and 20 mM HEPES. Ten minutes prior to the assay, the cell culture medium was replaced with 20 µL 37 °C Hank’s balanced salt solution (HBSS; with Ca^2+, Mg^2+, glucose). IP1 stimulation was then initiated by adding 5 µL of 5× agonist dissolved in HBSS plus 40 mM Li^+, and cells were incubated for an additional hour before aspiration and addition of Lysis Buffer. IP1 levels were determined using the Cisbio HTRF IP-ONE assay kit according to the manufacturer’s instructions, and fluorescence was measured using an Envision plate reader (PerkinElmer, Waltham, MA, USA). Data were acquired as HTRF ratio (665/620) and expressed as nanomolar levels of IP1.
# [1] = target: T2, M4 muscarinic receptor expressed in HEK/GIRK cells (no CB receptor) (Homo sapiens, UniProt P08173); experiment: Thallium flux assay in parental HEK/GIRK cells (no CB receptor), acetylcholine as agonist; details: presence of EC20 acetylcholine, cells without CB receptor
# T2 construct: host or cells: HEK/GIRK cells without CB receptor
# T2 sequence (P08173 1-479): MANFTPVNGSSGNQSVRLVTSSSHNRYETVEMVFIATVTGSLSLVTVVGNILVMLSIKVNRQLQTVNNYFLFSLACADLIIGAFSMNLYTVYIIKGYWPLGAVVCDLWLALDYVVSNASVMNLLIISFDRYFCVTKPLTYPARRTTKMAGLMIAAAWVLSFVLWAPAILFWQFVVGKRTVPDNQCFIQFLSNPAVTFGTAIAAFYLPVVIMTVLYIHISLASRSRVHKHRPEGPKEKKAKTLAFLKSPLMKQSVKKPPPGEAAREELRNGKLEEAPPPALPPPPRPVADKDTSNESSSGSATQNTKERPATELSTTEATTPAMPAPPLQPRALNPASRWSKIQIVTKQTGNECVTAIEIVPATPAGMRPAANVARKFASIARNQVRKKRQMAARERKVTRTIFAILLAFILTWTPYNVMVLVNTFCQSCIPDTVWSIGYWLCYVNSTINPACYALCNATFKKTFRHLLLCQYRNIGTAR
# Text: Mycophenolate mofetil is an immunosuppressant used to prevent organ transplant rejection and to treat autoimmune disorders such as lupus. To determine if mycophenolate mofetil exerts its activity in the thallium flux assay through rCB2, we tested it for activity in HEK cells expressing GIRK channels but not rCB2. Submaximal concentrations of acetylcholine were used as the agonist, targeting an M4 muscarinic receptor expressed in these HEK/GIRK cells. […] It was also critical to determine if mycophenolate mofetil was selective for the rCB2 versus rCB1 receptors, as activation of rCB1 receptors can have negative side effects, including anxiety, paranoia, and psychosis. […]
# Thallium flux assays were performed as previously described in Niswender et al., 2008 [31]. […] Thallium flux was measured using the Hamamatsu FDSS/μCELL Kinetic Plate Imager (Bridgewater, NJ, USA). After the establishment of a fluorescence baseline (excitation, 480 ± 20 nm; emission, 540 ± 30 nm), 20 µL (2×) of test compound was added to the cells at 1 s and the response was measured. […] Raw kinetic data were analyzed in a multi-step process: (1) Fluorescence readings for each time point in a well were divided by the fluorescence reading at the initial time point to account for differences in cell number, non-uniform illumination, and dye-loading. […]
# Chain of Human CB2 (P34972 whole entry): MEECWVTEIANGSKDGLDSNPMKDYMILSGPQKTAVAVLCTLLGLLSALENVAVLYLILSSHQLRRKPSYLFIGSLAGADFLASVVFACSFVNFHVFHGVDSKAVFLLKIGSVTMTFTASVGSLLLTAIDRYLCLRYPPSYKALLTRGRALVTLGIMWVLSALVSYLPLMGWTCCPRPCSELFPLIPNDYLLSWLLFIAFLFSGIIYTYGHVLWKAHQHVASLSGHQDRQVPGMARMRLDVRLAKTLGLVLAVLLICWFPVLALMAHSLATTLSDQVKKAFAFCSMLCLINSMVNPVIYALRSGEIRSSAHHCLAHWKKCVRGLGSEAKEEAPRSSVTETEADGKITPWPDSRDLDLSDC
structure (smiles),measurement,setting,value
COc1c(C)c2c(c(O)c1C/C=C(\C)CCC(=O)OCCN1CCOCC1)C(=O)OC2 [Mycophenolate mofetil],human CB2 receptor % Max,Human CB2,36 ± 4%
same,EC50,Human CB2; read-out: human CB2 receptor pEC50 (converted),2000 nM
same,"PI hydrolysis Max IP1, absence of 2-AG","rat CB2; absence of 2-AG, IP1 concentration",438 ± 32 nM
same,EC50,"rat CB2; absence of 2-AG, read-out: PI hydrolysis potency, absence of 2-AG",521 nM
same,"PI hydrolysis Max IP1, presence of 2-AG","rat CB2; presence of EC20 2-AG, IP1 concentration",633 ± 122 nM
same,EC50,"rat CB2; presence of EC20 2-AG, read-out: PI hydrolysis potency, presence of 2-AG",700 nM
same,HEK GIRK (+) ACh pEC50 ± SEM % Max ± SEM,[1],Inactive
COc1c(C)c2c(c(O)c1C/C=C(\C)CCC(=O)O)C(=O)OC2 [Mycophenolic acid],HEK GIRK (+) ACh pEC50 ± SEM % Max ± SEM,[1],Inactive
